Test results taken from PubChem BioAssay (NCI).
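A five-concentration, 48-hour dose response in 96-well plates underlies each endpoint, interpolated linearly between surrounding concentrations. Abbreviation: GI50, concentration required for 50% inhibition of growth. TGI denotes the concentration required for complete inhibition of growth.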

tested on: SF-539 CNS; assay: NCI tumour cell line growth inhibition, 48 h

Compound	TGI	GI50
N#Cc1c(-c2ccco2)cc(-c2ccc(N)cc2)[nH]c1=O	> 100 µM	–
C=CCC1(C)CCCCC1(O)CS(=O)c1ccccc1 (stereo not drawn)	> 100 µM	–
C1COCCSC2=C(SCCO1)SC(=C1SC3=C(SCCOCCOCCS3)S1)S2	> 100 µM	–
CC(C)(C)c1cc(C(=O)/C=C/c2ccc(C(=O)O)cc2)cc(C(C)(C)C)c1	2.97 µM	–
COc1cc(/C=N\O[Si](C)(C)C(C)(C)C)ccc1O[Si](C)(C)C(C)(C)C	> 100 µM	–
CC12CCC(=O)N1c1cccnc1N2 (stereo not drawn)	> 100 µM	–
Cc1sc2c(c1C)C(c1ccc(Cl)cc1)=N[C@@H](CC(=O)Nc1ccc(OCCOCCOCCOCCNc3cccc4c3C(=O)N(C3CCC(=O)NC3=O)C4=O)cc1)c1nnc(C)n1-2 (stereo partly drawn)	> 100 µM	0.242 µM
O=C1C2[C@@H](C(=O)N1c1ccc(Br)cc1)C13C(=CC2([N+](=O)[O-])[C@@H]2C(=O)N(c4ccc(Br)cc4)C(=O)[C@@H]21)c1ccccc1N3c1ccccc1 (stereo partly drawn)	> 100 µM	–
CCOC(=O)C1=C(Nc2ccc(Br)cc2)OCC1=O	> 100 µM	–
CCOc1ccc(N=Cc2c3ccccc3nc3ccccc23)cc1	> 100 µM	–
Nc1ccc(C2=N/C(=C\c3cccc(N)c3)C(=O)O2)cc1	> 100 µM	–
CC(=O)[CH-]C(=O)c1ccccc1.CC(=O)[CH-]C(=O)c1ccccc1.O=S(=O)([O-])c1cc([O-])c2c([O-])cc(S(=O)(=O)[O-])cc2c1.[Na+].[Ti+4]	> 100 µM	83.3 µM
NCCN.O=C([O-])[O-].O=C([O-])[O-].[Co+3].[K+]	> 100 µM	> 100 µM
C1=NC(N(Cc2ccccc2)Cc2ccccc2)N(Cc2ccccc2)N1 (stereo not drawn)	29.5 µM	–

tested on: HS 578T breast; assay: NCI tumour cell line growth inhibition, 48 h

Compound	GI50	TGI
COc1ccc(-c2nn(-c3cccc(Cl)c3)cc2-c2nc(N)[nH]c(=O)c2C#N)cc1	3.55 µM	40.3 µM
COC(=O)C(=O)CC(=O)c1cccc(OC)c1	–	> 100 µM
COc1cc2c3c(n(CCCN(CCO)CCO)c(=O)c2cc1OC)-c1cc2c(cc1C3=O)OCO2	1.66 µM	13 µM
CNCCn1c(=O)c2cc(OC)c(OC)cc2c2cnc3cc4c(cc3c21)OCO4	1.68 µM	4.44 µM
O=C(CCN1CCOCC1)Nc1cccc(-n2cc(-c3ccncc3)c(-c3ccc(Cl)c(O)c3)n2)c1	3.17 µM	25.8 µM
c1ccc(NCCSc2nc3ccccc3s2)cc1	–	> 100 µM
O=C(NC1CCCCC1)c1ccc(Nc2ncnc3c2cnn3-c2ccccc2)cc1	3.37 µM	34.2 µM
N#CC(C#N)=C1CCCOc2c1ccc1ccccc21	33.4 µM	> 100 µM
CCc1nc(Cl)c(Cl)c(Cl)n1	–	> 100 µM
CC(C)(C)c1cc(C(=O)/C=C/c2ccc(C(=O)O)cc2)cc(C(C)(C)C)c1	–	3.96 µM
Cc1sc2c(c1C)C(c1ccc(Cl)cc1)=N[C@@H](CC(=O)Nc1ccc(OCCOCCOCCOCCNc3cccc4c3C(=O)N(C3CCC(=O)NC3=O)C4=O)cc1)c1nnc(C)n1-2 (stereo partly drawn)	< 0.0178 µM	> 100 µM

tested on: T-47D breast; assay: NCI tumour cell line growth inhibition, 48 h

Compound	GI50	TGI
COc1ccc(-c2nn(-c3cccc(Cl)c3)cc2-c2nc(N)[nH]c(=O)c2C#N)cc1	6.05 µM	32.2 µM
COC(=O)C(=O)CC(=O)c1cccc(OC)c1	–	> 100 µM
COc1cc2c3c(n(CCCN(CCO)CCO)c(=O)c2cc1OC)-c1cc2c(cc1C3=O)OCO2	0.144 µM	> 22.7 µM
CNCCn1c(=O)c2cc(OC)c(OC)cc2c2cnc3cc4c(cc3c21)OCO4	< 0.01 µM	1.48 µM
O=C(CCN1CCOCC1)Nc1cccc(-n2cc(-c3ccncc3)c(-c3ccc(Cl)c(O)c3)n2)c1	1.74 µM	9.75 µM
c1ccc(NCCSc2nc3ccccc3s2)cc1	–	> 100 µM
Oc1ccc(Oc2cnc3ccccc3n2)cc1	84.5 µM	> 100 µM
O=C(NC1CCCCC1)c1ccc(Nc2ncnc3c2cnn3-c2ccccc2)cc1	20.2 µM	> 100 µM
N#CC(C#N)=C1CCCOc2c1ccc1ccccc21	> 100 µM	> 100 µM
CC(C)(C)c1cc(C(=O)/C=C/c2ccc(C(=O)O)cc2)cc(C(C)(C)C)c1	–	19.8 µM
Cc1cc(NCCCCNc2ccnc3cc(Cl)ccc23)nc(Nc2ccc(C(=O)N3CCCCC3)cc2)n1	2.52 µM	5.94 µM

tested on: NCI-H23 lung; assay: NCI tumour cell line growth inhibition, 48 h

Compound	TGI	GI50
CCc1cccc(C)c1NC(=O)CC1C(=O)Nc2ccccc2S1=O (stereo not drawn)	> 100 µM	–
Cc1ccc(N2C(=O)N(c3ccc(C)cc3)C3(SC=NN3C)C2=O)cc1 (stereo not drawn)	> 100 µM	–
COc1ccc(-c2nn(-c3cccc(Cl)c3)cc2-c2nc(N)[nH]c(=O)c2C#N)cc1	46.2 µM	5.44 µM
O=C1c2ccc3c4ccccc4n(-c4ccccc4)c3c2C(=O)N1c1ccc(Cl)cc1	24.4 µM	–
Cc1ccc2c(c1-c1ccccc1)C(=O)OC2	> 100 µM	–
CCC[CH2][Sn]1([CH2]CCC)[O]CC(COc2c(Cl)cc(Cl)cc2Cl)[O]1 (stereo not drawn)	2.69 µM	1.11 µM
NC(CCc1ncc(C(=O)O)s1)C(=O)O (stereo not drawn)	> 100 µM	–
CSc1ccc2c(cc1=O)[C@@H](NC(=O)c1cc(O)c(O)c(O)c1)CCc1cc(O)c(O)c(O)c1-2	39.7 µM	–
COC(=O)C(=O)CC(=O)c1cccc(OC)c1	> 100 µM	–
COc1cc2c3c(n(CCCN(CCO)CCO)c(=O)c2cc1OC)-c1cc2c(cc1C3=O)OCO2	0.139 µM	< 0.01 µM
CNCCn1c(=O)c2cc(OC)c(OC)cc2c2cnc3cc4c(cc3c21)OCO4	1.33 µM	< 0.0112 µM
O=C(CCN1CCOCC1)Nc1cccc(-n2cc(-c3ccncc3)c(-c3ccc(Cl)c(O)c3)n2)c1	18.6 µM	3.04 µM
COc1cc(-c2nnc3n2NC=C(C(=O)O)S3)cc(OC)c1OC	> 100 µM	–
c1ccc(NCCSc2nc3ccccc3s2)cc1	> 100 µM	–
Oc1ccc(Oc2cnc3ccccc3n2)cc1	> 100 µM	> 100 µM
C[P+](C)(C)c1ccccc1	> 100 µM	–
O=C1c2ccccc2C(=O)N1C/C=N/NS(=O)(=O)c1ccc(Br)cc1	> 100 µM	–
NC(=O)c1cn(Cc2ccccc2)c(=O)n1Cc1ccccc1	> 100 µM	–
CCOC(=O)C(C)(c1c(C)[nH]c2ccccc12)c1c(C)[nH]c2ccccc12	37.5 µM	–

Compound	TGI	GI50
Cc1c(Cl)cccc1NC(=O)c1cccc([N+](=O)[O-])c1O	29.4 µM	–
CC1COS(=O)O1 (stereo not drawn)	> 100 µM	–
O=C(NC1CCCCC1)c1ccc(Nc2ncnc3c2cnn3-c2ccccc2)cc1	89.9 µM	10.9 µM
O=C1CC2CCN(C(=O)c3ccccc3)CC2CCN1 (stereo not drawn)	> 100 µM	–
N#CC(C#N)=C1CCCOc2c1ccc1ccccc21	> 100 µM	> 100 µM
CCc1nc(Cl)c(Cl)c(Cl)n1	> 100 µM	–
O=C1C=CC(=CC=C2C=CN(CCCCCCCCCCC(=O)NCCCCCCCCCCCC(=O)O)C=C2)C=C1	> 100 µM	–
N#Cc1c(-c2ccco2)cc(-c2ccc(N)cc2)[nH]c1=O	> 100 µM	–
C1COCCSC2=C(SCCO1)SC(=C1SC3=C(SCCOCCOCCS3)S1)S2	> 100 µM	–
CC12CCC(=O)N1c1cccnc1N2 (stereo not drawn)	> 100 µM	–
COc1cc2c(cc1OC)C1Cc3cc(OC)c(OC)cc3N1CC2 (stereo not drawn)	> 100 µM	–
Cc1sc2c(c1C)C(c1ccc(Cl)cc1)=N[C@@H](CC(=O)Nc1ccc(OCCOCCOCCOCCNc3cccc4c3C(=O)N(C3CCC(=O)NC3=O)C4=O)cc1)c1nnc(C)n1-2 (stereo partly drawn)	> 100 µM	3.75 µM
O=C1C2[C@@H](C(=O)N1c1ccc(Br)cc1)C13C(=CC2([N+](=O)[O-])[C@@H]2C(=O)N(c4ccc(Br)cc4)C(=O)[C@@H]21)c1ccccc1N3c1ccccc1 (stereo partly drawn)	> 100 µM	–
CCOC(=O)C1=C(Nc2ccc(Br)cc2)OCC1=O	> 100 µM	–
CCOc1ccc(N=Cc2c3ccccc3nc3ccccc23)cc1	> 100 µM	–
Nc1ccc(C2=N/C(=C\c3cccc(N)c3)C(=O)O2)cc1	> 100 µM	–
Cc1cc(NCCCCNc2ccnc3cc(Cl)ccc23)nc(Nc2ccc(C(=O)N3CCCCC3)cc2)n1	5.73 µM	2.27 µM
NCCN.O=C([O-])[O-].O=C([O-])[O-].[Co+3].[K+]	> 100 µM	> 100 µM
C1=NC(N(Cc2ccccc2)Cc2ccccc2)N(Cc2ccccc2)N1 (stereo not drawn)	54.9 µM	–
